We go through 13 compounds from patent US6011019A, “Vasoactive effects and free radical generation by β-amyloid peptides” (University of South Florida, priority 1996, dated 2000).

In data set [1] the test system is aortic rings. The experiment in a line: β-amyloid augmentation of phenylephrine (PE) induced contraction of aortic rings. Particulars: for effect on β-amyloid induced enhancement of PE mediated contraction: β-amyloid 5×10^-7 M, PE 4×10^-8 M, L-NMMA 10^-4 M, indomethacin 10^-5 M, SQ 29548 10^-5 M, catalase 1000 units/ml. Set-up: species or system rat. Here is the method:
(§1) The blood vessel preparations were mounted on stainless steel hooks attached to a force-displacement transducer and equilibrated under the optimum tension of 1.3 g for a period of sixty minutes in a tissue bath (10 ml) containing oxygenated (5% CO2 in O2) Kreb's buffer at 37° C. The buffer was changed every fifteen minutes. After equilibration for sixty minutes the viability of the blood vessel with intact endothelium was established by constricting the blood vessel using phenylephrine ([…]). This dose of phenylephrine elicited 80% of the maximum response. […] The vessel preparations were washed for fifteen minutes before various manipulations as described below.
The procedure was then repeated following incubation of the tissue with 10^-6 M β-amyloid for fifteen minutes (P1). The tissue was then rinsed and contractions repeated twice following fifteen minute incubation (P2 & P3) without further addition of β-amyloid. Arrows are shown for points of addition for P3.
Following a fifteen minute incubation, the preparations were contracted with 10^-7 M phenylephrine (PE) as described earlier. Control contractions with PE alone were carried out in presence of the various test compounds. Values represent the mean±SEM of four or more experiments. The heat-inactivated SOD was prepared by placing it in boiling water for thirty minutes followed by cooling prior to use. The hydrogen peroxide-inactivated SOD was prepared by exposing SOD to 10 mM H2 O2 for thirty minutes at pH 8.5 and subsequent separation using Microcon filtration system. The amyloid induced PE contraction was blocked by active SOD. Neither albumin or inactivated SOD had any effect on the amyloid activity.
The effect of preincubation of blood vessel with 10^-6 M β-amyloidon contraction induced by phenylephrine (2, 4, 8, & 16×10^-8 M is shown in Table 1). The maximum contraction in the absence of β-amyloid is taken as 100% and the values obtained following exposure to β-amyloid are expressed as percent of control value. After washing out phenylephrine and acetylcholine of the control contraction, β-amyloid augmented the phenylephrine induced contractions (P1). This effect was blocked by SOD. Washing out the phenylephrine and acetylcholine of the post peptide contraction and repeating the contractions caused further enhancement (P2). Values represent the mean±SEM of nine or more experiments.
The tissue was then incubated for fifteen minutes with β-amyloid (5×10^-7 M) with or without the drug, followed by contractions with PE. The concentrations compounds used were: L-NMMA, an inhibitor of NO synthase (10^-4 M); indomethacin, an inhibitor of the cyclooxygenase pathway (10^-5 M); SQ 29548, a thromboxane A2 receptor antagonist (10^-5 M); and catalase (1000 units/ml). Values are represented as percentage of the maximal contraction obtained with β-amyloid and PE alone and standardized to remove the intrinsic effects (if any) of each drug on PE contraction alone. The results represent the mean±SEM of five or more experiments.

The subject of data set [2] is rat coronary arteries. The experiment in a line: Rat coronary artery constriction and relaxation (U46619, acetylcholine). Particulars: for constriction of rat coronary artery by the peptide: 10^-6 M peptide. Here is the method: The effects of β-amyloid peptide were examined on samples of rat coronary arteries prepared as described above. Referring specifically to FIG. 1, rat coronary arteries were treated with β-amyloid peptide (Aβ40) causing constriction of the coronary arteries.
FIG. 3 illustrates the effect of various amyloid fragments on the constriction of rat coronary arteries. Following control constriction with 10^-7 M U46619, the tissue samples were rinsed, equilibrated with buffer, and treated with 10^-6 M Aβ peptides for fifteen minutes. Following treatment with the Aβ peptides, the blood vessels were rinsed and again exposed to U46619. The values are expressed as percent of control constriction produced by U46619 alone.
The effect of pretreatment of coronary arteries with a single dose (10^-6 M) of A40 on acetylcholine induced relaxation is shown in FIG. 20. The blood vessel was preconstricted with 10^-7 M U46619 and relaxed with increasing doses of acetylcholine (10^-9 M to 10^-5 M).

Data set [3] relates to rat aorta. Description: Enhancement of endothelin-1 (ET-1) induced vasoconstriction of rat aorta. Particulars: for enhancement of ET-1 contraction: peptide 1 μM (Aβ25-35 1 μM and 5 μM) ten minutes prior to first ET-1 dose. As for the experimental part:
Normal Sprague-Dawley rats were sacrificed by decapitation, and freshly dissected rat aorta was segmented into rings and suspended in Ringers buffer using a tensiometer linked to the MacLab system. Following a two hour equilibration period, the "pretreatment" contraction was carried out. The aortic rings were contracted using a range of doses of endothelin-1 and relaxed using a single odes of acetylcholing (Ach(10^-7 M)). […] The dose of each Aβ peptide was 1 μM, with the exception of Aβ25-35 (1 μM and 5 μM), and was added ten minutes prior to the first ET-1 dose. For SOD treatment we added 150 U/ml 30 seconds before the addition of Aβ.
Endothelium was removed by gently passing a glass pipette, dipped in saline solution, through the lumen of the aortae several time, allowing the pipette to gently brush the endothelial surface. Endothelium was removed from the aortae prior to hanging in the tissue bath system. Both pre-and post treatment contractions involved a single does of ET-1 (5×10^-9 M).
In all cases the mean difference in percentage contraction in the pre- and post-contractions (before and after addition of test compound respectively) was measured, and compared between the two. Endogenous production of ET-1 was measured using an ET-1 RIA kit (Peninsula Laboratories).

In data set [4] the test system is blood vessel (rat aorta). Description: Vascular response of blood vessel rings in tissue bath (basal tension, β-amyloid induced vasoactivity). As for the experimental part: Freshly excised rat and porcine blood vessels were placed in Kreb's bicarbonate buffer equilibrated with 5% CO2 in O2. The buffer composition consisted of 118.2 mM NaCl, 4.7 mM KCl, 1.2 mM MgSO4, 2.5 mM CaCl2, 1.2 mM NaH2 PO4, 23 mM NaHCO3 and 11.2 mM glucose. After cleaning the vessels free of fat and other adhering tissues, the vessels were cut into ring segments of approximately 3 mm in length. Care was taken not to damage the intimal surface.
The endothelium was removed from some preparations by rubbing the inside of the lumen with a metal spatula for six to ten seconds and subsequent rinsing with buffer. The removal of endothelium was confirmed by testing for relaxation to acetylcholine [Furchgott and Zawadzki, 1980].
as §1
Referring to FIG. 10, the arrow indicates the addition of 10^-6 M β-amyloid. The control tissue received no β-amyloid. SOD (150 units/ml) was added thirty seconds prior to the addition of β-amyloid. The maximum contraction induced by β-amyloid was 1.14±0.13 (g) and in presence of SOD the contraction was reduced to 0.04±0.02 (g). Values represent the mean±SEM of five separate experiments.

In data set [5] the test system is human aortic endothelial cel line (HAEC). Description: Aβ toxicity on HAEC and its prevention (trypan blue exclusion, HE stain). Particulars: pimozide 10 μM, three hours post treatment.
Procedure: (§2) All these cells were maintained at 37° C., under an atmosphere containing 5% CO2. For the present experiments, HAEC and BE(2)-M17 were seeded at densities of 2×10^4 cells per well in 24-23ll clusters.
(§3) The experiments were terminated one half, one, two and three hours post treatment by detachment with Trypsin/EDTA solution and followed by a toxicity assay with trypan blue exclusion. In parallel experiments, cells were attached to a round Thermanox (Nunc) at the bottom of the well, and were stopped three to 24 hours post treatment by fixation with 4% neutral formalin solution which was followed by Hematoxylin-Eosin stain to show morphology.
(§4) Morphological changes in cells were monitored throughout the course of the experiment with an inverse phase-contrast microscope. After termination of the experiments, the cells fixed on the Thermanox were subjected to routine Hematoxylin-Eosin (HE) stain. The morphological characteristics of toxic cells were observed under light microscope and typical results were recorded by photographs.
(§5) For approximate quantification of Aβ toxicity of HAEC, modified procedure for trypan blue exclusion was employed. In brief, the detached cells were resuspended with an appropriate volume of culture media, 20 μl of this cell suspension was mixed with an equivalent volume of 4% Trypan-blue solution thoroughly, and allowed to sit for two minutes after mixing. Approximately 9 μl of the mixture was transferred to a hemocytometer for cell counting. The cell viability was determined by the equation: [formula] In the case of severe toxicity, where some of the cells were lysed, the total cell numbers were adjusted by that of controls. In this experiment, counts for each sample were triplicated.
Data set [6] relates to human neuroblastoma cell line (BE(2)-M17). Description: Aβ toxicity on BE(2)-M17 (trypan blue exclusion). It is filed as cell-based. Particulars: same concentrations as HAEC cultures, up to day eight; data not shown. From the text:
Trypan blue exclusion was used for the cell viability assay.

The test system of data set [7] is human aortic endothelial cel line (HAEC).
Procedure: as §2, §3, §4, §5

Turning to `CNC(=N)NCCC[C@H](N)C(=O)O` [L-NMMA], the “effect on β-amyloid induced enhancement of PE mediated contraction” value (“effect on β-amyloid induced enhancement” below) in data set [1] is “None of the compounds exerted any significant effect”.

For `O=C(O)CCC/C=C\C[C@@H]1[C@H](CNNC(=O)Nc2ccccc2)[C@H]2CC[C@@H]1O2` [SQ 29548], in data set [1], the “effect on β-amyloid induced enhancement” value was “None of the compounds exerted any significant effect”.

Turning to `CCCCC[C@H](O)/C=C/[C@@H]1[C@@H](C/C=C\CCCC(=O)O)[C@H]2CO[C@@H]1C2` [U46619], in data set [2] (10^-7 M), the “constriction of rat coronary artery by vasoconstrictor” value is “caused constriction of the blood vessel”.

As to `Oc1ncnc2[nH]ncc12` [allopurinol], the “effect of allopurinol on Aβ enhancement” value in data set [3] is given as “No effect on Aβ enhancement”.

With `COc1ccc2c(c1)c(CC(=O)O)c(C)n2C(=O)c1ccc(Cl)cc1` [indomethacin], in data set [1], the “effect on β-amyloid induced enhancement” value is recorded as “None of the compounds exerted any significant effect”.

With `CNC[C@H](O)c1cccc(O)c1` [phenylephrine], the Emax at 1000 µM in data set [4] (Rattus norvegicus, phenylephrine (1 mM), viability test of vessel, read-out: response elicited, of the maximum response) was determined as 80%. Further, in data set [4] (with or without endothelium), the “constriction of blood vessel” value is “constricted in response to phenylephrine with or without endothelium”.

As for `O=c1[nH]c2ccccc2n1C1CCN(CCCC(c2ccc(F)cc2)c2ccc(F)cc2)CC1` [pimozide], the “own toxicity of the blocker on HAEC” value in data set [5] is “seems to be toxic itself”.

With `COc1ccc(CCN(C)CCCC(C#N)(c2ccc(OC)c(OC)c2)C(C)C)cc1OC` (stereo not shown) [verapamil], the “ET-1 contraction with the compound alone” value in data set [3] (verapamil 50 μM) is reported as “caused enhancement of contraction”. Moreover, in data set [3] (verapamil 50 μM two minutes before Aβ, endothelium present), the “effect on Aβ enhancement of ET-1 contraction” value is “had no effect on Aβ enhancement”.

Aβ1-28: β-amyloid peptide fragment 1-28: the “constriction of rat coronary artery by the peptide” value in data set [2] is on record as “induce constriction of the coronary artery”.

Take “Aβ1-42: β-amyloid peptide with forty-two amino acids; supplied by RBI and/or MD Enterprise”: in data set [6], the “toxic effect on differentiated BE(2)-M17 cells” value is “not toxic effect was noticed”. Further, in data set [3], the “enhancement of vasoconstriction compared with Aβ1-40” value is on record as “decreased enhancement of vasoconstriction” and the “enhancement of ET-1 contraction” value is given as “also enhanced the ET-1 contraction”. For the same compound, in data set [7], the “cell morphology by HE staining” value is “highly vacuolized cytoplasm, blebbing cell membranes and swelling cell bodies”; the “cell viability one half hour post treatment” value is recorded as “significant reduction of cell viability”; the “time and dose dependence of toxic effects on HAEC” value was “time-and dose-dependent manner”.

“Aβ25-35: fragment of Aβ, widely regarded to be the neurotoxic fragment (GSNKGAIIGLM; Amyloid-beta protein 42; UniProt P05067 696-706, looked up, fragment)”: in data set [2], the “constriction of rat coronary artery by the peptide” value is “induce constriction of the coronary artery”. Moreover, the “toxic effect on differentiated BE(2)-M17 cells” value in data set [6] is recorded as “not toxic effect was noticed”. Also, the “enhancement of ET-1 contraction” value in data set [3] is listed as “unable to enhance contraction even at five times the concentration of Aβ1-40”. Further, in data set [7], the “cell morphology by HE staining” value is “highly vacuolized cytoplasm, blebbing cell membranes and swelling cell bodies”; the “cell viability one half hour post treatment” value was “significant reduction of cell viability”; the “time and dose dependence of toxic effects on HAEC” value is given as “time-and dose-dependent manner”.

For albumin, the “protection against β-amyloid enhancement of PE induced contraction” value in data set [1] (preincubation before 10^-6 M β-amyloid, 10^-7 M PE) was “did not protect”.

As for catalase, the “effect on β-amyloid induced enhancement” value in data set [1] is on record as “None of the compounds exerted any significant effect”.
